Reference: patent US9175906B2, “Drug particles from freezing onto a surface” (BOARD OF REGENTS, THE UNIVERSITY OF TEXAS SYSTEM, priority 2003, dated 2015)
“And” between values parts separate entries of the source, which are not always exact repeats. Equal values may be shown once.

Experiments:
[1] = Particle size analysis (Beckman Coulter Counter) after redispersion in water; assay type: physicochemical; conditions: bulk drug powder as received, redispersed in water
Protocol: (§1) • Particle Size Analysis. […] Dissolution obtained using the following method is also referred to herein as “in vitro dissolution”. The dissolution media used varied with the drug substance, and is specified below. The dissolution media was heated to 37° C. and degassed. Dissolution was performed utilizing three vessels per experiment. 11 to 12 mg of drug particles prepared according to the present invention was added to each vessel for dissolution analysis. Dissolution samples were filtered automatically into test tubes containing 0.1 mL of acetonitrile, mixed with a vortex mixer, filtered and analyzed by HPLC. Samples were taken at 2, 5, 10, 15, 20, 30, 60, and 120 minutes. At the 60 min. point the agitation speed was increased to 200 rpm to ensures complete dissolution by 120 minutes. The 120 min. reading is the infinity time reading and the infinity time is used to calculate the potency. […] Crystallinity was determined by X-ray diffraction methods using a Bruker D-8 automated diffractometer. • Atmospheric Freeze Drying (ATMFD). ATMFD was one method of solvent removal used in the following examples. Heat transfer fluid was circulated through the circulating jacket of the heat exchanger, that was used to cool the drying gas then to the jacket of the ATMFD unit. Chilled nitrogen gas is flowed through the bottom of the ATMFD unit to sublime the solvent(s) away from the drug (s) and fluidizing the solids. The ATMFD unit and the nitrogen gas temperature are slowly warmed to ambient temperature. After the ATMFD portion of the process was complete the solid was collected from either the cyclone or the ATMFD Unit. • Freeze Drying. Freeze drying was an alternative solvent removal method used in some of the following examples. The frozen solution that was prepared was transferred to ajar cooled with dry ice. The processed solid in the chilled container was placed on a Virtis freeze dryer and dried for app. 12-24 hr at approximately 100 mtorr vacuum.

[2] = USP Dissolution Apparatus Method 2 (in vitro dissolution); assay type: physicochemical; conditions: 37° C.
Protocol: as §1

[3] = deionized water containing 10.0 wt. % sodium chloride

Row | PSA of bulk drug [1] | also measured | Compound
1 | 391.4 microns | Dissolution of bulk drug after 2 minutes ([2]; deionized water containing 5.0 wt. % sodium chloride): 4.83 wt % | NC(=O)N1c2ccccc2C=Cc2ccccc21 [Carbamazepine]
2 | 24.86 microns | Dissolution of bulk drug after 2 minutes ([2]; deionized water, 0.75 wt. % SLS, 1.21 wt. % Tris, pH 9): 56.42 wt % | C#C[C@]1(O)CC[C@H]2[C@@H]3CCC4=Cc5oncc5C[C@]4(C)[C@H]3CC[C@@]21C [Danazol]
3 | 17.07 microns | Dissolution of bulk drug after 2 minutes ([2]; deionized water containing 0.3 wt. % SDS): 21.16 wt % | CC(=O)OCC(=O)[C@@]1(O)CC[C@H]2[C@@H]3CCC4=CC(=O)CC[C@]4(C)[C@H]3[C@@H](O)C[C@@]21C [Hydrocortisone Acetate]
4 | 13.5 microns and 13.50 microns | Dissolution of bulk drug after 2 minutes ([2]; deionized water containing 0.5 wt. % SLS): 26.1 wt % and 26.10 wt % | CC(=O)N1CCN(c2ccc(OCC3COC(Cn4ccnc4)(c4ccc(Cl)cc4Cl)O3)cc2)CC1 (stereo not shown) [Ketoconazole]
5 | 42.73 microns |  | CC(C(=O)O)c1cccc(C(=O)c2ccccc2)c1 (stereo not shown) [Ketoprofen]
6 | 3.263 microns | Dissolution of bulk drug after 2 minutes [2, 3]: 0.97 wt % | C[C@]12C=CC(=O)C=C1CC[C@@H]1[C@@H]2C(=O)C[C@@]2(C)[C@H]1CC[C@]2(O)C(=O)CO [Prednisone]
7 | 7.707 microns | Dissolution of bulk drug after 2 minutes [2, 3]: 5.38 wt % | CC1(C)O[C@@H]2C[C@H]3[C@@H]4CCC5=CC(=O)C=C[C@]5(C)[C@@]4(F)[C@@H](O)C[C@]3(C)[C@]2(C(=O)CO)O1 [Triamcinalone Acetonide]
